Measurements as given in patent publication US20250026746A1, “ENHANCERS OF PARTICULATE GUANYLYL CYCLASE RECEPTOR A” (Mayo Foundation for Medical Education and Research, priority 2021, published 2025).

Experiments:
[1] = target: T1, human GC-A (Homo sapiens, UniProt P16066); assay: cGMP levels (ELISA) in HEK293 cells overexpressing human GC-A; format: cell-based; conditions: acetate salt; for cGMP generation in the presence of ANP: ANP (10^−10 M)
T1 construct: host or cells: HEK293
T1 sequence (P16066 33-1061): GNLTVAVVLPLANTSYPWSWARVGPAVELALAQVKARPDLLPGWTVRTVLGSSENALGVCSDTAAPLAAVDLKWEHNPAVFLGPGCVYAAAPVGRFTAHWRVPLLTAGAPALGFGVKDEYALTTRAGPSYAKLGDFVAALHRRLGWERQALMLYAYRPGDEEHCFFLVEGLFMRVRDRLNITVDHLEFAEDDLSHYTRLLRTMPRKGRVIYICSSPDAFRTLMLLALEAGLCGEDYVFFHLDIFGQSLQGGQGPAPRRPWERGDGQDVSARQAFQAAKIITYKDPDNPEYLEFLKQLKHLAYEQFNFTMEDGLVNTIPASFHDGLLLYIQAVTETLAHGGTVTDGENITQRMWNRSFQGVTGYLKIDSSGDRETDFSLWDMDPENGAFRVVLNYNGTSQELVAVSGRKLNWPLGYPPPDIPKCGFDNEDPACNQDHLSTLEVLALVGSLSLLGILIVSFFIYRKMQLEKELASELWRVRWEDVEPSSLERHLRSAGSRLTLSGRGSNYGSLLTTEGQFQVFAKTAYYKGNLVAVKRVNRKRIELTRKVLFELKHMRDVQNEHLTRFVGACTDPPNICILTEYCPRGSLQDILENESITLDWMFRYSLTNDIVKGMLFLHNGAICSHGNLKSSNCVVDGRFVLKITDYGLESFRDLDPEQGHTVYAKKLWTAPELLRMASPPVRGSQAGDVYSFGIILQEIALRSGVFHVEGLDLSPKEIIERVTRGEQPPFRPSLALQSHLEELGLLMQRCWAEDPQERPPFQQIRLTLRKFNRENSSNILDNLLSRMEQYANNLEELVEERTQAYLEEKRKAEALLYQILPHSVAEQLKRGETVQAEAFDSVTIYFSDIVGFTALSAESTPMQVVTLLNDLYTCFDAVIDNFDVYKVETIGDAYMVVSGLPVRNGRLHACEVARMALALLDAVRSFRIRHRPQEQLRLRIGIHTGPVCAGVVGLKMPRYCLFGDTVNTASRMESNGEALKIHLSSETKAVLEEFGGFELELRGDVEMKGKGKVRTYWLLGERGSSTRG
T1 sequence (P01160 124-151 partner limits assumed): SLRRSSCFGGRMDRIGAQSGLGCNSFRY
Protocol: HEK293 GC-A cells were seeded in 48-well plates (1×10^5 cell per well) and cultured overnight to reach 80-90% confluency. The treatment buffer that consists of Hank's Balanced Salt Solution (HBSS), 0.1% BSA, 2 mM HEPES and 0.5 mM 3-isobutyl-1-methylzanthine (IBMX—a non-specific phosphodiesterase inhibitor), was used in all experiments. Compound 3, Compound 1, and Compound 2 acetate salt were dissolved in DMSO and ANP was dissolved in phosphate buffered solution (PBS). On the experimental day, growth media was replaced with treatment buffer and HEK293 GC-A cells were 1) treated with Compound 3, Compound 1 or Compound 2 at doses of 1 or 10 μM (reaching a final concentration of 0).1% DMSO) alone for 5 min at 37° C.: or 2) pretreated with Compound 3, Compound 1 or Compound 2 at doses of 1 or 10 μM (reaching a final concentration of 0.1% DMSO) for 5 min at 37° C., followed by a treatment with ANP (10^-10 M) for additional 10 min at 37° C. HEK293 GC-A cells were also treated with vehicle (0.1% DMSO) which served as a negative control. Then all cells were washed with PBS once and lysed with 0.1M HCl. Intracellular cGMP was measured in the lysate using a commercial cGMP ELISA kit (Enzo Life Sciences, Farmingdale, NY) as instructed by the manufacturer.

[2] = tested on: spontaneously hypertensive rats; assay: In vivo actions in spontaneously hypertensive rats (cGMP, blood pressure, renal function); design: species or system rat; conditions: acetate salt, 10 mg/kg single IV bolus, SHR; for plasma cGMP: 15 minutes after administration; for diastolic blood pressure: 60 minutes post-bolus; for diastolic blood pressure / urinary sodium excretion / urinary volume / systolic blood pressure: vs vehicle (and Compound 2); for urinary sodium excretion / urinary volume: post-bolus; for systolic blood pressure: throughout 60 minutes post bolus
Protocol: The cGMP generating, blood pressure lowering and renal enhancing actions of a single intravenous (IV) bolus dose of Compound 3, Compound 1 or Compound 2 acetate salt (n=4/small molecule form: 10 mg/kg) or Vehicle (n=5: 15% DMSO/60% PEG300/25% PBS) in spontaneously hypertensive rats (SHRs; male: 12 weeks old) were investigated. Studies were performed in accordance with the Animal Welfare Act and with approval of the Mayo Clinic Institutional Animal Care and Use Committee.
SHRs were administered Inactin (100 mg/kg: IP) to induce anesthesia and then maintained with additional Inactin (100 mg/kg: IP), as required. Once adequate anesthesia was achieved, the anesthetized SHRs were placed on a heating table set at 37° C. to maintain body temperature for the entire study and then were subjected to vessel and bladder cannulation. A polyethylene (PE)-50 tube catheter was placed into the jugular vein for saline, Compound 3, Compound 1, Compound 2 or vehicle IV administration. The carotid artery was cannulated with a PE-50 tube catheter for blood pressure monitoring (Sonometrics, London, Ontario, Canada) and blood sampling/collection. The bladder was accessed and cannulated with a PE-90 tube catheter for passive urine collection. After completion of the procedural set up, a 45-minute equilibration period was performed that included continuous IV saline infusion, a 30-minute baseline (pre-bolus) urine collection and a single baseline blood sample at the end of the 30-minute baseline urine collection. […] BP was monitored and recorded, beginning prior to IV bolus administration (0-minute post-bolus) and then at 15, 30, 45 and 60 minutes post-bolus. At the end of the 60-minute clearance, the anesthetized rats were euthanized by exsanguination and all blood and urine samples were stored at −80° C. until assayed. Plasma and urinary cGMP levels were measured using a cGMP ELISA kit (Enzo Life Sciences, Farmingdale, NY) as instructed by the manufacturer. Urinary sodium concentrations were determined with an electrolyte analyzer (Diamond Diagnostics Inc., Holliston, MA).

| cGMP generation in the presence of ANP ([1]; 1 or 10 μM) | cGMP generation, compound alone ([1]; 1 or 10 μM, without ANP, vs vehicle) | cGMP generation in the presence of ANP, Compound 1 compared with Compound 2 ([1]; both doses (1 and 10 μM), ANP (10^-10 M)) | SMILES | plasma cGMP [2] | urinary cGMP [2] | diastolic blood pressure [2] | urinary sodium excretion [2] | urinary volume [2] | systolic blood pressure [2] |
| --- | --- | --- | --- | --- | --- | --- | --- | --- | --- |
| dose dependent increase | no effect | – | CN(C)CCN1CCCC(C(=O)Nc2nc3c(F)cc(F)cc3s2)C1 (racemic) [Compound 3, N-(4,6-difluorobenzo[d]thiazol-2-yl)-1-(2-(dimethylamino)ethyl) piperidine-3-carboxamide] | increase | increase | greater reduction | greater increase | greater increase | greater reduction |
| dose response increase | – | higher | CN(C)CCN1CCC[C@H](C(=O)Nc2nc3c(F)cc(F)cc3s2)C1 [Compound 1, (S)-N-(4,6-difluorobenzo[d]thiazol-2-yl)-1-(2-(dimethylamino)ethyl) piperidine-3-carboxamide] | increase | increased | more effective | more effective | more effective | more effective |
| dose response increase | – | – | CN(C)CCN1CCC[C@@H](C(=O)Nc2nc3c(F)cc(F)cc3s2)C1 [Compound 2, (R)-N-(4,6-difluorobenzo[d]thiazol-2-yl)-1-(2-(dimethylamino)ethyl) piperidine-3-carboxamide] | increase | did not increase | – | – | – | – |
